{"source": "the RepoRT retention time repository (doi:10.1021/es4044374)", "data": [{"experiment": "RP, Waters XBridge C18, 50 × 2.1 mm, 3.5 µm, 30 °C, 0.2 mL/min, estimated dead time 0.55 min; A: water + 0.1% formic acid, pH 3; B: methanol + 0.1% formic acid, pH 3; gradient (min/%B) 0/10 4/50 17/95 25/95 25.1/10 30/10", "conditions": "stereoisomer not certain", "units": {"LC retention time": "min"}, "values": [{"molecule": "FC(F)(F)c1cccc(N2CCNCC2)c1", "note": "[1-(3-(Trifluoromethyl)phenyl)piperazine]", "LC retention time": 5.9}, {"molecule": "Clc1cccc(N2CCNCC2)c1", "note": "[1-(3-Chlorophenyl)piperazine]", "LC retention time": 5.2}, {"molecule": "c1ccc(CN2CCNCC2)cc1", "note": "[1-Benzylpiperazine]", "LC retention time": 1.2}, {"molecule": "c1ccc2n[nH]nc2c1", "note": "[1H-Benzotriazole]", "LC retention time": 4.4}, {"molecule": "O=c1ccn(C2OC(CO)C(O)C2(F)F)c(=O)[nH]1", "note": "(configuration not stated) [2',2'-Difluoro-2'-deoxyuridine]", "LC retention time": 1.7}, {"molecule": "CC(=O)OC1C(C)OC(n2cc(F)c(N)nc2=O)C1OC(C)=O", "note": "(configuration not stated) [2',3'-di-O-acetyl-5'-deoxy-5-fluorocytidine]", "LC retention time": 5.2}, {"molecule": "O=C(O)COc1ccc(Cl)cc1Cl", "note": "[2,4-D]", "LC retention time": 9.1}, {"molecule": "NC(=O)c1c(Cl)cccc1Cl", "note": "[2,6-Dichlorobenzamide]", "LC retention time": 4}, {"molecule": "O=S(=O)(O)c1ccc2ccc(S(=O)(=O)O)cc2c1", "note": "[2,7-Naphthalenedisulfonic acid]", "LC retention time": 1.2}, {"molecule": "Nc1nc2ccccc2[nH]1", "note": "[2-Aminobenzimidazole]", "LC retention time": 2.7}, {"molecule": "COC(=O)c1ccccc1S(N)(=O)=O", "note": "[2-Aminosulfonyl-benzoic acid methyl ester]", "LC retention time": 4.5}, {"molecule": "COc1nc(C)nc(N)n1", "note": "[2-Methyl-4-amino-6-methoxy-s-triazine]", "LC retention time": 1.7}, {"molecule": "O=S(=O)(O)c1ccc2ccccc2c1", "note": "[2-Naphthalenesulfonic acid]", "LC retention time": 5.2}, {"molecule": "CCCCCCCCn1sccc1=O", "note": "[2-Octyl-3(2H)-isothiazolone]", "LC retention time": 11.6}, {"molecule": "O=c1[nH]c(Cl)c(Cl)cc1Cl", "note": "[3,5,6-Trichloro-2-pyridinol]", "LC retention time": 9.7}, {"molecule": "O=C(O)c1cc(Br)c(O)c(Br)c1", "note": "[3,5-Dibromo-4-hydroxybenzoic acid]", "LC retention time": 7.3}, {"molecule": "O=C(O)c1cccc(Oc2ccccc2)c1", "note": "[3-Phenoxybenzoic acid]", "LC retention time": 11.5}, {"molecule": "OCc1cccc(Oc2ccccc2)c1", "note": "[3-Phenoxybenzylalcohol]", "LC retention time": 9.8}, {"molecule": "CCCCCCCCn1sc(Cl)c(Cl)c1=O", "note": "[4,5-Dichloro-2-n-octyl-3(2H)-isothiazolone (DCOIT)]", "LC retention time": 15.3}, {"molecule": "CC(=O)Nc1c(C)n(C)n(-c2ccccc2)c1=O", "note": "[4-Acetamidoantipyrine]", "LC retention time": 3.7}, {"molecule": "Cc1c(N)c(=O)n(-c2ccccc2)n1C", "note": "[4-Aminoantipyrine]", "LC retention time": 2.6}, {"molecule": "Oc1ccc(Cl)cc1", "note": "[4-Chlorophenol]", "LC retention time": 7.3}, {"molecule": "Cc1c(NC=O)c(=O)n(-c2ccccc2)n1C", "note": "[4-Formylaminoantipyrine]", "LC retention time": 3.7}, {"molecule": "CC(C)c1ccc(N)cc1", "note": "[4-Isopropylaniline]", "LC retention time": 5.2}, {"molecule": "Oc1ccc(C(F)(F)F)cc1", "note": "[4-Trifluoromethylphenol]", "LC retention time": 8.9}, {"molecule": "Cn1sc(Cl)cc1=O", "note": "[5-Chloro-2-methyl-4-isothiazolin-3-one (CMI)]", "LC retention time": 3.7}, {"molecule": "O=c1[nH]cc(F)c(=O)[nH]1", "note": "[5-Fluorouracil]", "LC retention time": 1}, {"molecule": "Cc1ccc2n[nH]nc2c1", "note": "[5-Methyl-1H-benzotriazole]", "LC retention time": 5.8}, {"molecule": "O=C(O)C=C(F)C(F)(F)C(F)(F)C(F)(F)C(F)(F)C(F)(F)F", "note": "[6:2 fluorotelomer unsaturated carboxylic acid]", "LC retention time": 13.6}, {"molecule": "O=C(O)C=C(F)C(F)(F)C(F)(F)C(F)(F)C(F)(F)C(F)(F)C(F)(F)C(F)(F)F", "note": "[8:2 fluorotelomer unsaturated carboxylic acid]", "LC retention time": 16.1}, {"molecule": "NC(=O)N1c2ccccc2C(O)C(O)c2ccccc21", "note": "(stereo not drawn) [10,11-trans-Dihydroxy-10,11-dihydrocarbamazepine]", "LC retention time": 6.1}, {"molecule": "CC(=O)NCCCS(=O)(=O)O", "note": "[Acamprosate]", "LC retention time": 1}, {"molecule": "CC1=CC(=O)NS(=O)(=O)O1", "note": "[Acesulfame]", "LC retention time": 1.5}, {"molecule": "CC(=NC#N)N(C)Cc1ccc(Cl)nc1", "note": "[Acetamiprid]", "LC retention time": 5.3}, {"molecule": "CCOCN(C(=O)CS(=O)(=O)O)c1c(C)cccc1CC", "note": "[Acetochlor ESA]", "LC retention time": 7.7}, {"molecule": "CCOCN(C(=O)C(=O)O)c1c(C)cccc1CC", "note": "[Acetochlor OXA]", "LC retention time": 7.5}, {"molecule": "CCOCN(C(=O)CCl)c1c(C)cccc1CC", "note": "[Acetochlor]", "LC retention time": 11.7}, {"molecule": "CCc1cccc(CC)c1N(COC)C(=O)CS(=O)(=O)O", "note": "[Alachlor ESA]", "LC retention time": 7.7}, {"molecule": "CCc1cccc(CC)c1N(COC)C(=O)C(=O)O", "note": "[Alachlor OXA]", "LC retention time": 7.4}, {"molecule": "CCc1cccc(CC)c1N(COC)C(=O)CCl", "note": "[Alachlor]", "LC retention time": 11.7}, {"molecule": "CC(C)(C)NCC(O)c1ccc(O)c(CO)c1", "note": "(configuration not stated) [Albuterol]", "LC retention time": 2}, {"molecule": "Cc1c(N(C)C)c(=O)n(-c2ccccc2)n1C", "note": "[Aminopyrine]", "LC retention time": 2.6}, {"molecule": "CCN1CCCC1CNC(=O)c1cc(S(=O)(=O)CC)c(N)cc1OC", "note": "(configuration not stated) [Amisulpride]", "LC retention time": 3.8}, {"molecule": "Cc1ccc(N=CN(C)C=Nc2ccc(C)cc2C)c(C)c1", "note": "[Amitraz]", "LC retention time": 15.4}, {"molecule": "CN(C)CCC=C1c2ccccc2CCc2ccccc21", "note": "[Amitriptyline]", "LC retention time": 8.6}, {"molecule": "CC(N)Cc1ccccc1", "note": "(configuration not stated) [Amphetamine]", "LC retention time": 3.5}, {"molecule": "Cc1cc(=O)n(-c2ccccc2)n1C", "note": "[Antipyrine]", "LC retention time": 4.6}, {"molecule": "COC(=O)C(Cc1ccccc1)NC(=O)C(N)CC(=O)O", "note": "(configuration not stated) [Aspartame]", "LC retention time": 4.8}, {"molecule": "COC(=O)NS(=O)(=O)c1ccc(N)cc1", "note": "[Asulam]", "LC retention time": 2.4}, {"molecule": "CC(C)NCC(O)COc1ccc(CC(=O)O)cc1", "note": "(configuration not stated) [Atenolol acid]", "LC retention time": 3.8}, {"molecule": "NCC(O)COc1ccc(CC(N)=O)cc1", "note": "(configuration not stated) [Atenolol-desisopropyl]", "LC retention time": 1}, {"molecule": "CC(C)NCC(O)COc1ccc(CC(N)=O)cc1", "note": "(configuration not stated) [Atenolol]", "LC retention time": 2}, {"molecule": "CNCCC(Oc1ccccc1C)c1ccccc1", "note": "(configuration not stated) [Atomoxetine]", "LC retention time": 8}, {"molecule": "CC(C)c1c(C(=O)Nc2ccccc2)c(-c2ccccc2)c(-c2ccc(F)cc2)n1CCC(O)CC(O)CC(=O)O", "note": "(configuration not stated) [Atorvastatin]", "LC retention time": 12.4}, {"molecule": "CCNc1nc(NC(C)C)nc(OC)n1", "note": "[Atraton]", "LC retention time": 5.7}, {"molecule": "CCNc1nc(NC(C)C)[nH]c(=O)n1", "note": "[Atrazine-2-hydroxy]", "LC retention time": 4.4}, {"molecule": "CC(C)Nc1nc(N)[nH]c(=O)n1", "note": "[Atrazine-desethyl-2-hydroxy]", "LC retention time": 1.4}, {"molecule": "CC(C)Nc1nc(N)nc(Cl)n1", "note": "[Atrazine-desethyl]", "LC retention time": 5.6}, {"molecule": "CCNc1nc(N)nc(Cl)n1", "note": "[Atrazine-desisopropyl]", "LC retention time": 4.3}, {"molecule": "CCNc1nc(Cl)nc(NC(C)C)n1", "note": "[Atrazine]", "LC retention time": 8.3}, {"molecule": "CCC1OC(=O)C(C)C(OC2CC(C)(OC)C(O)C(C)O2)C(C)C(OC2OC(C)CC(N(C)C)C2O)C(C)(O)CC(C)CN(C)C(C)C(O)C1(C)O", "note": "(configuration not stated) [Azithromycin]", "LC retention time": 5.9}, {"molecule": "COC=C(C(=O)O)c1ccccc1Oc1cc(Oc2ccccc2C#N)ncn1", "note": "[Azoxystrobin (free acid)]", "LC retention time": 8.8}, {"molecule": "COC=C(C(=O)OC)c1ccccc1Oc1cc(Oc2ccccc2C#N)ncn1", "note": "[Azoxystrobin]", "LC retention time": 9.9}, {"molecule": "CC(C)N1C(=O)c2ccccc2NS1(=O)=O", "note": "[Bentazone]", "LC retention time": 7.5}, {"molecule": "O=c1[nH]sc2ccccc12", "note": "[Benzisothiazolone (BIT)]", "LC retention time": 5.1}, {"molecule": "COc1ccc(C(=O)c2ccccc2)c(O)c1", "note": "[Benzophenone-3]", "LC retention time": 12.1}, {"molecule": "c1ccc2scnc2c1", "note": "[Benzothiazole]", "LC retention time": 6.6}, {"molecule": "CN1C2CCC1C(C(=O)O)C(OC(=O)c1ccccc1)C2", "note": "(configuration not stated) [Benzoylecgonine]", "LC retention time": 4.6}, {"molecule": "CC(C)(Oc1ccc(CCNC(=O)c2ccc(Cl)cc2)cc1)C(=O)O", "note": "[Bezafibrate]", "LC retention time": 10.6}, {"molecule": "CC(O)(CS(=O)(=O)c1ccc(F)cc1)C(=O)Nc1ccc(C#N)c(C(F)(F)F)c1", "note": "(configuration not stated) [Bicalutamide]", "LC retention time": 9.9}, {"molecule": "O=P(O)(OCCC(F)(F)C(F)(F)C(F)(F)C(F)(F)C(F)(F)C(F)(F)C(F)(F)C(F)(F)F)OCCC(F)(F)C(F)(F)C(F)(F)C(F)(F)C(F)(F)C(F)(F)C(F)(F)C(F)(F)F", "note": "[Bisperfluorodecyl phosphate]", "LC retention time": 20.4}, {"molecule": "O=P(O)(OCCC(F)(F)C(F)(F)C(F)(F)C(F)(F)C(F)(F)C(F)(F)F)OCCC(F)(F)C(F)(F)C(F)(F)C(F)(F)C(F)(F)C(F)(F)F", "note": "[Bisperfluorooctyl phosphate]", "LC retention time": 18.1}, {"molecule": "CC(C)(c1ccc(O)cc1)c1ccc(O)cc1", "note": "[Bisphenol A]", "LC retention time": 14}, {"molecule": "O=C(Nc1ccccc1-c1ccc(Cl)cc1)c1cccnc1Cl", "note": "[Boscalid]", "LC retention time": 10.5}, {"molecule": "CCC(C)n1c(=O)[nH]c(C)c(Br)c1=O", "note": "(configuration not stated) [Bromacil]", "LC retention time": 7}, {"molecule": "N#Cc1cc(Br)c(O)c(Br)c1", "note": "[Bromoxynil]", "LC retention time": 8.3}, {"molecule": "CC(NC(C)(C)C)C(=O)c1cccc(Cl)c1", "note": "(configuration not stated) [Bupropion]", "LC retention time": 5.8}, {"molecule": "Cn1c(=O)c2c(ncn2C)n(C)c1=O", "note": "[Caffeine]", "LC retention time": 4}, {"molecule": "CCOc1nc2cccc(C(=O)O)c2n1Cc1ccc(-c2ccccc2-c2nn[nH]n2)cc1", "note": "[Candesartan]", "LC retention time": 9.3}, {"molecule": "NC(=O)N1c2ccccc2C2OC2c2ccccc21", "note": "(configuration not stated) [Carbamazepine-10,11-epoxide]", "LC retention time": 6.3}, {"molecule": "NC(=O)N1c2ccccc2C=Cc2ccccc21", "note": "[Carbamazepine]", "LC retention time": 7.8}, {"molecule": "CCNC(=O)C(C)OC(=O)Nc1ccccc1", "note": "(configuration not stated) [Carbetamide]", "LC retention time": 6.6}, {"molecule": "O=C(O)COCCN1CCN(C(c2ccccc2)c2ccc(Cl)cc2)CC1", "note": "(configuration not stated) [Cetirizine]", "LC retention time": 9.3}, {"molecule": "Nc1cnn(-c2ccccc2)c(=O)c1Cl", "note": "[Chloridazon]", "LC retention time": 5.2}, {"molecule": "Nc1cn[nH]c(=O)c1Cl", "note": "[Chloridazone-desphenyl]", "LC retention time": 1.3}, {"molecule": "Cn1ncc(N)c(Cl)c1=O", "note": "[Chloridazone-methyl-desphenyl]", "LC retention time": 2.2}, {"molecule": "COP(=S)(OC)Oc1nc(Cl)c(Cl)cc1Cl", "note": "[Chlorpyrifos-methyl]", "LC retention time": 14}]}]}
